Measured values as given in patent US11612643B2, “Col14A1-derived tumor antigen polypeptide and use thereof” (Genoimmune Therapeutics Co., Ltd., priority 2016, dated 2023).

Key:
[1] = target: T1, HLA-A0201 (Homo sapiens, UniProt P04439, D140Y/D185E/D98H/E176V/E277Q/G131W/G231S/I119V/I121R/I166T/I218V/L300P/L318F/N151K/N90K/P208A/P217A/Q86G/Q94H/R138H/R169H/T345S); experiment: Affinity verification of the peptides to T2 cells (flow cytometry, FITC anti-HLA-A0201); assay type: cell-based; conditions: added peptide 100 μM, FI>1.5 high affinity for HLA-A0201, listed as wild-type peptide
T1 construct: T2 cells (a lymphocyte, tumor cell line, expressing HLA-A0201); host or cells: T2 cells (TAP-deficient T/B lymphocyte hybridoma, HLA-A2 positive)
Protocol: 10 μg/ml of each peptide as described above was added, and human β2 microglobulin (at a final concentration of 3 μg/ml) was added and cultured overnight in an incubator (37° C., 5% CO2). Two replicate wells were set up for each group.
Cells were collected by centrifugation of the cell culture at 200 g for 5 minutes. The collected cells were washed twice with PBS, and then directly incubated with FITC-conjugated anti-HLA-A0201 monoclonal antibody at 4° C. for 30 minutes. The mean fluorescence intensity (MFI) was then detected and analyzed by flow cytometer (BD FACSJazz™) and its software. The fluorescence index (FI) was calculated by using the following formula: FI=[MFIsample−MFIbackground]/MFIbackground;

[2] = system: CD8+ T cells; experiment: ELISPOTs detection of IFN-gamma secretion by peptide-specific CD8+ T cells; assay type: cell-based, human; conditions: for Conclusion (immunogenicity): ELISPOTs; for Number of spots in the wild-type peptide group: T cells activated by listed peptide + T2 loaded with wild-type peptide FMVDGSWSI, 20 h
Text: In this example, a ELISPOTs detection kit (Cat. No.: 3420-4AST-10, MABTECH) was used to verify the activation of an immune response of CD8+ T cells by the peptides of the present invention.
Principle of the ELISPOTs detection method is as follows: CD8+ T cells can specifically recognize the complex of HLA-A0201 and a peptide. The population of T cells recognizing the complex of the peptide and HLA-A0201 is varying, depending on the peptide sequence. Since T2 cells express HLA-A0201, CD8+ T cells can specifically recognize the T2 cells loaded with a peptide. After specific recognition of the complex of HLA-A0201 and the peptide, peptide-specific CD8+ T cells can be activated again to secrete IFN-gamma interferon. The IFN-gamma interferon secreted by the activated CD8+ T cells can be captured by antibodies on the ELISPOTs plate. Finally, the enzyme-conjugated antibody that recognizes IFN-gamma can degrade the substrate through the enzyme conjugated thereto and develop color, eventually producing spots. The number of spots represents the number of cells that are activated to secrete IFN-gamma interferon.
The cultured cells from Example 3 were added, along with T2 cells loaded with the mutant peptide […] of the present invention and the wild-type peptide […], respectively, into ELISPOTs plates, and cultured for 20 h, and then a ELISPOTs detection was performed (see the kit instruction). Finally, the spots produced by the ELISPOTs detection were counted.
The peptide was determined to have immunogenicity when the number of spots of the tested peptide/the number of spots of an unrelated peptide>2; that is, if the number of spots caused by the tested peptide is more than twice than that of an unrelated peptide, the tested peptide is determined to have immunogenicity.

[3] = system: T2 cells; experiment: LDH release assay, killing of peptide-loaded T2 target cells by CD8+ T cells; assay type: cell-based, human; conditions: T2 loaded with wild-type FMVDGSWSI, 4 h
Protocol: The cells cultured in Example 3 were co-cultured with T2 cells loaded with the mutant peptides of the present invention or the wild-type peptide or without a peptide. A maximum release well, a volume correction well, a medium control well, a spontaneous release well and control wells for example at different effector-to-target ratios (ratios of T cells to T2 cells) were set in this experiment. Three replicate wells were set for each group. After 4 h, 50 μl of the co-culture supernatant was taken out and added to 50 μl of LDH substrate mixture to catalyze the reaction of LDH substrate. Finally, the plates were read at a wavelength of 490 nm, with a reference wavelength of 680 nm, and the killing activity against target cells T2 was calculated based on the control wells.

[4] = system: CD8+ T cells; experiment: ELISPOTs detection of IFN-gamma secretion by peptide-specific CD8+ T cells; assay type: cell-based, human; conditions: ratio of spot numbers; >2 immunogenic
[5] = effector-to-target ratio (10:1)

| Sequence | FI (fluorescence index) [1] | Conclusion (immunogenicity) [2] | Number of spots in the wild-type peptide group [2] | killing activity against target cells T2 ([3]; effector-to-target ratio (1:1)) | killing activity against target cells T2 [3, 5] | Fold (tested/wild-type) [4] |
| --- | --- | --- | --- | --- | --- | --- |
| FMVDGSWSI [wild-type COL14A1 peptide used as comparator] | greater than 1.5 |  |  |  |  |  |
| FLVDGFWSL |  | immunogenic | 30 | 3.13% | 6.33% | 10.26 |
| FLVDGFWSI |  | immunogenic | 28 | 2.65% | 5.53% | 11.21 |
| FMVDGFWSL |  | immunogenic | 37 | 3.12% | 4.91% | 8.86 |
| FLVDGFWSV |  | immunogenic | 31 | 3.26% | 6.01% | 9.71 |
| FMVDGFWSV |  | immunogenic | 41 | 3.37% | 5.63% | 7.87 |
